In the supplement of paper PMC10307832:

How the values were obtained:
Experiment in all cases: relative viability (nuclei count vs DMSO), 5 days (fraction); higher = more cells survive
[1] = compound: N#CC1(c2ccc(NC(=O)c3cccnc3NCc3ccncc3)cc2)CCCC1 [Apatinib] + CC1(C)CCC(c2ccc(Cl)cc2)=C(CN2CCN(c3ccc(C(=O)NS(=O)(=O)c4ccc(N[C@H](CCN5CCOCC5)CSc5ccccc5)c(S(=O)(=O)C(F)(F)F)c4)cc3)CC2)C1 [Navitoclax] (partner 0.5 µM)
In short: (§1)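 Lung cancer cell lines were seeded in 1536-well plates and dosed by pin tool the next day, with either a single drug or a fixed anchor-drug dose combined with five library-drug doses (not always all listed) spaced in √10 steps. Five days later, one step fixed the cells and stained their nuclei (final 0.05% Triton X-100, 1% formaldehyde, 1 ug/ml Hoechst), and nuclei were counted on 4× images. Relative viability is the nuclei count in treated wells divided by the count in vehicle wells, and each value is the median of duplicate plates.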

[2] = compound: N#CC1(c2ccc(NC(=O)c3cccnc3NCc3ccncc3)cc2)CCCC1 [Apatinib] + C[C@@H](Oc1cc(-c2cnn(C3CCNCC3)c2)cnc1N)c1c(Cl)ccc(F)c1Cl [Crizotinib] (partner 1 µM)
In short: as §1

[3] = compound: N#CC1(c2ccc(NC(=O)c3cccnc3NCc3ccncc3)cc2)CCCC1 [Apatinib] + Nc1nc2[nH]cc(CCc3ccc(C(=O)N[C@@H](CCC(=O)O)C(=O)O)cc3)c2c(=O)[nH]1 [Pemetrexed] (partner 0.2 µM)
In short: as §1

[4] = compound: CN(C)C(=N)NC(=N)N [Metformin] + Cc1cc(Nc2cc(N3CCN(C)CC3)nc(Sc3ccc(NC(=O)C4CC4)cc3)n2)n[nH]1 [Tozasertib] (partner 0.1 µM)
In short: as §1

| Cell Line | relative viability ([1]; first compound 0.08 µM) | relative viability ([1]; first compound 0.253 µM) | relative viability ([1]; first compound 0.8 µM) | relative viability ([1]; first compound 2.53 µM) | relative viability ([1]; first compound 8 µM) | relative viability ([2]; first compound 0.08 µM) | relative viability ([2]; first compound 0.253 µM) | relative viability ([2]; first compound 0.8 µM) | relative viability ([2]; first compound 2.53 µM) | relative viability ([2]; first compound 8 µM) | relative viability ([3]; first compound 0.08 µM) | relative viability ([3]; first compound 0.253 µM) | relative viability ([3]; first compound 0.8 µM) | relative viability ([3]; first compound 2.53 µM) | relative viability ([3]; first compound 8 µM) | relative viability ([4]; first compound 10 µM) | relative viability ([4]; first compound 31.62 µM) | relative viability ([4]; first compound 100 µM) | relative viability ([4]; first compound 316.23 µM) | relative viability ([4]; first compound 1000 µM) |
| --- | --- | --- | --- | --- | --- | --- | --- | --- | --- | --- | --- | --- | --- | --- | --- | --- | --- | --- | --- | --- |
| NCI-H1651 | 1.02 | 1.22 | 0.97 | 0.928 | 0.867 | 0.916 | 0.86 | 0.84 | 0.8 | 0.733 | 0.552 | 0.555 | 0.556 | 0.531 | 0.483 | 0.751 | 0.847 | 0.86 | 0.728 | 0.976 |
| COR-L23 | 1.05 | 1.02 | 0.871 | 0.885 | 0.827 | 0.627 | 0.647 | 0.648 | 0.52 | 0.565 | 0.194 | 0.191 | 0.192 | 0.199 | 0.177 | 0.183 | 0.193 | 0.187 | 0.164 | 0.176 |
| A-427 | 0.929 | 0.911 | 0.934 | 0.853 | 0.478 | 0.902 | 0.969 | 0.919 | 0.808 | 0.705 | 0.993 | 0.903 | 0.974 | 0.896 | 0.932 | 0.225 | 0.255 | 0.224 | 0.185 | 0.245 |
| NCI-H2342 | – | – | – | – | – | – | – | – | – | – | 0.731 | 0.73 | 0.744 | 0.733 | 0.737 | 0.507 | 0.447 | 0.618 | 0.35 | 0.276 |
| 201T | 1.2 | 1.24 | 1.19 | 1.27 | 1.18 | 1.02 | 1.04 | 0.996 | 1.03 | 0.992 | 0.325 | 0.37 | 0.297 | 0.334 | 0.316 | – | 0.93 | 1.04 | 0.857 | 0.92 |
| NCI-H522 | – | – | – | – | – | – | – | – | – | – | 0.986 | 0.975 | 0.993 | 0.66 | 0.748 | 0.68 | 0.695 | 0.693 | 0.609 | 0.764 |
| NCI-H2023 | 0.988 | 1.01 | 0.954 | 0.925 | 0.895 | 0.717 | 0.737 | 0.69 | 0.699 | 0.643 | 0.212 | 0.278 | 0.2 | 0.191 | 0.204 | 0.32 | 0.413 | 0.479 | 0.301 | 0.324 |
| NCI-H2085 | 1.18 | 1.23 | 1.18 | 1.05 | 0.949 | 0.89 | 0.794 | 0.797 | 0.777 | 0.623 | 0.949 | 0.777 | 0.876 | 0.823 | 0.782 | 0.85 | 0.746 | 0.896 | 0.773 | 0.841 |
| LXF-289 | 0.948 | 0.925 | 0.95 | 0.82 | 0.882 | 0.797 | 0.817 | 0.778 | 0.749 | 0.742 | 0.916 | 0.908 | 0.818 | 0.692 | 0.886 | 0.191 | 0.179 | 0.206 | 0.174 | 0.19 |
| Calu-6 | 0.791 | 0.919 | 0.751 | 0.648 | 0.626 | 0.789 | 0.855 | 0.726 | 0.599 | 0.594 | – | – | – | – | – | – | – | – | – | – |
| IA-LM | 0.947 | 0.709 | 0.633 | 0.352 | 0.208 | 0.857 | 0.615 | 0.697 | 0.694 | 0.192 | – | – | – | – | – | – | – | – | – | – |
| NCI-H1395 | 1.1 | 1.13 | 1.09 | 1.02 | 0.957 | – | – | – | – | – | 0.913 | 0.802 | 0.881 | 0.685 | 0.635 | 0.727 | 0.752 | 0.867 | 0.83 | 0.738 |
| EBC-1 | 0.5 | 0.55 | 0.46 | 0.27 | 0.237 | 0.211 | 0.185 | 0.178 | 0.211 | 0.208 | – | – | – | – | – | – | – | – | – | – |
| NCI-H661 | – | – | – | – | – | 1.02 | 1.03 | 1.02 | 0.934 | 0.916 | 0.933 | 0.853 | 0.911 | 0.917 | 0.892 | 0.344 | 0.373 | 0.377 | 0.362 | 0.366 |
| NCI-H1563 | – | – | – | – | – | 0.824 | 0.848 | 0.864 | 0.851 | 0.797 | 0.622 | 0.765 | 0.795 | 0.708 | 0.681 | – | – | – | – | – |
| NCI-H1623 | – | – | – | – | – | – | – | – | – | – | – | – | – | – | – | 0.363 | 0.413 | 0.452 | 0.337 | 0.452 |
| NCI-H1648 | – | – | – | – | – | – | – | – | – | – | 0.681 | 0.613 | 0.706 | 0.548 | 0.691 | 0.474 | 0.656 | 0.859 | 0.706 | 0.742 |
| NCI-H1793 | 0.343 | 0.712 | 0.441 | 0.29 | 0.283 | – | – | – | – | – | 1.1 | 0.932 | 0.871 | 0.726 | 0.633 | 0.459 | – | 0.5 | 0.469 | 0.588 |
| NCI-H1792 | 0.572 | 0.596 | 0.569 | 0.559 | 0.592 | 0.97 | 0.988 | 0.949 | 0.96 | 0.832 | 0.984 | 0.722 | 0.993 | 0.558 | 0.447 | – | – | – | – | – |
| NCI-H727 | 0.465 | 0.552 | 0.384 | 0.425 | 0.531 | 0.756 | 0.693 | 0.719 | 0.679 | 0.583 | – | – | – | – | – | 0.564 | 0.821 | 0.606 | 0.501 | 0.637 |
| NCI-H1299 | 1.06 | 1.05 | 1.03 | 1.05 | 0.937 | 0.998 | 0.974 | 0.517 | 0.961 | 0.77 | – | – | – | – | – | – | – | – | – | – |
| NCI-H650 | – | – | – | – | – | 0.664 | 0.843 | 0.676 | 0.562 | 0.43 | 1.02 | 0.924 | 0.89 | 0.799 | 0.597 | 0.831 | 0.8 | 0.973 | 0.48 | 0.919 |
| LCLC-103H | – | – | – | – | – | 1.02 | 1.05 | 1.01 | 0.97 | 1.07 | 0.439 | 0.463 | 0.412 | 0.432 | 0.39 | 0.557 | 0.627 | 0.568 | 0.556 | 0.592 |
